According to PubChem BioAssay AID228 (DTP/NCI, 2004):
Several values for one entry are separate records, joined by “and”; a condition that tells them apart may be missing. Equal entries are not always repeated. Results filed as inconclusive are left out.

Test system: BDF1 mice, Friend leukemia sc, tumor weight T/C
Assay: NCI In Vivo Anticancer Drug Screen. Data for tumor model Friend Virus Leukemia (Solid) (subcutaneous) in B6D2F1 (BDF1) mice
Conditions: endpoint: mean tumor weight, higher = larger tumour
Description: The antitumor activity of compounds was measured in mice bearing transplantable tumors. Survival or tumor size were measured and the results are expressed as the measurement made in the treated group (T) divided by the measurement made in the vehicle treated control group (C). The tumor model used in this assay is Friend Virus Leukemia (Solid) (subcutaneous) in B6D2F1 (BDF1) mice

[1] = dose: 100.0 mg/kg/injection, schedule: Q01DX011 (ip), vehicle: carboxymethylcellulose (CMC)
[2] = dose: 125.0 mg/kg/injection, schedule: Q01DX011 (ip), vehicle: carboxymethylcellulose (CMC)
[3] = dose: 1.0 mg/kg/injection, schedule: Q01DX011 (ip), vehicle: carboxymethylcellulose (CMC)
[4] = dose: 3.0 mg/kg/injection, schedule: Q01DX011 (ip), vehicle: carboxymethylcellulose (CMC)
[5] = dose: 6.0 mg/kg/injection, schedule: Q01DX011 (ip), vehicle: carboxymethylcellulose (CMC)
[6] = dose: 25.0 mg/kg/injection, schedule: Q01DX011 (ip), vehicle: carboxymethylcellulose (CMC)
[7] = dose: 50.0 mg/kg/injection, schedule: Q01DX011 (ip), vehicle: carboxymethylcellulose (CMC)
[8] = dose: 0.5 mg/kg/injection, schedule: Q01DX011 (ip), vehicle: carboxymethylcellulose (CMC)
[9] = dose: 200.0 mg/kg/injection, schedule: Q01DX011 (ip), vehicle: carboxymethylcellulose (CMC)
[10] = dose: 10.0 mg/kg/injection, schedule: Q01DX011 (ip), vehicle: saline
[11] = dose: 15.0 mg/kg/injection, schedule: Q01DX011 (ip), vehicle: saline
[12] = dose: 7.0 mg/kg/injection, schedule: Q01DX011 (ip), vehicle: carboxymethylcellulose (CMC)
[13] = dose: 15.0 mg/kg/injection, schedule: Q01DX011 (ip), vehicle: carboxymethylcellulose (CMC)

O=C(Nc1ccc(C2=NCCN2)cc1)c1ccc(C(=O)Nc2ccc(C3=NCCN3)cc2)cc1
T/C (dose: 31.25 mg/kg/injection, schedule: Q01DX011 (ip), vehicle: carboxymethylcellulose (CMC)): 94 % of control
T/C (dose: 62.5 mg/kg/injection, schedule: Q01DX011 (ip), vehicle: carboxymethylcellulose (CMC)): 89 % of control
T/C [1]: 99 % of control
T/C [2]: 5 % of control
T/C (dose: 187.0 mg/kg/injection, schedule: Q01DX011 (ip), vehicle: carboxymethylcellulose (CMC)): 32 % of control

CC(=O)OCC(=O)[C@@]1(O)CC[C@H]2[C@@H]3CCC4=CC(=O)CC[C@]4(C)[C@H]3C(=O)C[C@@]21C
T/C (dose: 5.62 mg/kg/injection, schedule: Q01DX011 (sc), vehicle: steriod suspending solution): 59 % of control
T/C (dose: 8.0 mg/kg/injection, schedule: Q01DX011 (sc), vehicle: steriod suspending solution): 97 % of control
T/C (dose: 11.25 mg/kg/injection, schedule: Q01DX011 (sc), vehicle: steriod suspending solution): 33 % of control
T/C (dose: 16.0 mg/kg/injection, schedule: Q01DX011 (sc), vehicle: steriod suspending solution): 69 % of control
T/C (dose: 22.5 mg/kg/injection, schedule: Q01DX011 (sc), vehicle: steriod suspending solution): 21 % of control
T/C (dose: 31.0 mg/kg/injection, schedule: Q01DX011 (sc), vehicle: steriod suspending solution): 15 % of control and 29 % of control (2×)
T/C (dose: 34.0 mg/kg/injection, schedule: Q01DX011 (sc), vehicle: steriod suspending solution): 50 % of control
T/C (dose: 45.0 mg/kg/injection, schedule: Q01DX011 (sc), vehicle: steriod suspending solution): 13 % of control
T/C (dose: 62.0 mg/kg/injection, schedule: Q01DX011 (sc), vehicle: steriod suspending solution): 7 % of control and 9 % of control and 18 % of control
T/C (dose: 68.0 mg/kg/injection, schedule: Q01DX011 (sc), vehicle: steriod suspending solution): 28 % of control
T/C (dose: 125.0 mg/kg/injection, schedule: Q01DX011 (sc), vehicle: steriod suspending solution): 3 % of control and 15 % of control and 20 % of control
T/C (dose: 250.0 mg/kg/injection, schedule: Q01DX011 (sc), vehicle: steriod suspending solution): 3 % of control and 6 % of control and 20 % of control

CCOC(=O)NP(=O)(N1CC1(C)C)N1CC1(C)C (stereo unspecified)
T/C (dose: 125.0 mg/kg/injection, schedule: Q01DX011 (ip), vehicle: saline): 73 % of control
T/C (dose: 187.0 mg/kg/injection, schedule: Q01DX011 (ip), vehicle: saline): 101 % of control
T/C (dose: 250.0 mg/kg/injection, schedule: Q01DX011 (ip), vehicle: saline): 65 % of control
T/C (dose: 375.0 mg/kg/injection, schedule: Q01DX011 (ip), vehicle: saline): 24 % of control

Nc1nc(SCc2ccccc2Cl)c2[nH]cnc2n1
T/C [3]: 88 % of control
T/C [4]: 77 % of control
T/C [5]: 67 % of control
T/C (dose: 12.0 mg/kg/injection, schedule: Q01DX011 (ip), vehicle: carboxymethylcellulose (CMC)): 28 % of control
T/C [6]: 18 % of control
T/C [7]: 7 % of control
T/C [1]: 2 % of control

NCC(O)c1ccc(O)c(O)c1 (stereo unspecified)
T/C (dose: 9.37 mg/kg/injection, schedule: Q01DX011 (ip), vehicle: saline): 84 % of control
T/C (dose: 18.75 mg/kg/injection, schedule: Q01DX011 (ip), vehicle: saline): 69 % of control
T/C (dose: 37.5 mg/kg/injection, schedule: Q01DX011 (ip), vehicle: saline): 30 % of control

C[C@]12CC[C@H](OC3OC(CO)C(O)C(O)C3O)C[C@H]1CC[C@@H]1[C@@H]2CC[C@]2(C)[C@@H](C3=CCOC3=O)CC[C@]12O (stereo partly specified)
T/C (dose: 0.1 mg/kg/injection, schedule: Q01DX011 (ip), vehicle: carboxymethylcellulose (CMC)): 69 % of control

O=P(N1CC1)(N1CC1)N1CC1
T/C [8]: 86 % of control
T/C [3]: 83 % of control
T/C (dose: 2.0 mg/kg/injection, schedule: Q01DX011 (ip), vehicle: carboxymethylcellulose (CMC)): 84 % of control and 88 % of control
T/C (dose: 4.0 mg/kg/injection, schedule: Q01DX011 (ip), vehicle: carboxymethylcellulose (CMC)): 25 % of control and 37 % of control

Oc1ccc2ccccc2c1N=Nc1ccccc1
T/C [6]: 90 % of control
T/C [7]: 56 % of control
T/C [1]: 41 % of control and 47 % of control
T/C [9]: 65 % of control and 47 % of control

O=NN(CCCl)C(=O)NCCCl
T/C (dose: 0.81 mg/kg/injection, schedule: Q01DX011 (ip), vehicle: saline): 112 % of control
T/C (dose: 1.62 mg/kg/injection, schedule: Q01DX011 (ip), vehicle: saline): 102 % of control
T/C (dose: 3.25 mg/kg/injection, schedule: Q01DX011 (ip), vehicle: saline): 54 % of control
T/C (dose: 6.5 mg/kg/injection, schedule: Q01DX011 (ip), vehicle: saline): 39 % of control
T/C [10]: 88 % of control
T/C [11]: 51 % of control
T/C (dose: 25.0 mg/kg/injection, schedule: Q01DX011 (ip), vehicle: saline): 4 % of control

Nc1ncnc2[nH]ncc12
T/C (dose: 0.9 mg/kg/injection, schedule: Q01DX011 (ip), vehicle: carboxymethylcellulose (CMC)): 108 % of control
T/C (dose: 0.93 mg/kg/injection, schedule: Q01DX011 (ip), vehicle: carboxymethylcellulose (CMC)): 74 % of control
T/C (dose: 1.8 mg/kg/injection, schedule: Q01DX011 (ip), vehicle: carboxymethylcellulose (CMC)): 157 % of control
T/C (dose: 1.87 mg/kg/injection, schedule: Q01DX011 (ip), vehicle: carboxymethylcellulose (CMC)): 90 % of control
T/C (dose: 1.9 mg/kg/injection, schedule: Q01DX011 (ip), vehicle: carboxymethylcellulose (CMC)): 124 % of control
T/C (dose: 3.7 mg/kg/injection, schedule: Q01DX011 (ip), vehicle: carboxymethylcellulose (CMC)): 57 % of control
T/C (dose: 3.75 mg/kg/injection, schedule: Q01DX011 (ip), vehicle: carboxymethylcellulose (CMC)): 50 % of control
T/C (dose: 3.8 mg/kg/injection, schedule: Q01DX011 (ip), vehicle: carboxymethylcellulose (CMC)): 88 % of control
T/C (dose: 5.0 mg/kg/injection, schedule: Q01DX011 (ip), vehicle: carboxymethylcellulose (CMC)): 29 % of control
T/C [5]: 40 % of control
T/C [12]: 28 % of control

CS(=O)(=O)OCCCOS(C)(=O)=O
T/C [13]: 100 % of control
T/C (dose: 30.0 mg/kg/injection, schedule: Q01DX011 (ip), vehicle: carboxymethylcellulose (CMC)): 98 % of control
T/C (dose: 60.0 mg/kg/injection, schedule: Q01DX011 (ip), vehicle: carboxymethylcellulose (CMC)): 31 % of control and 46 % of control
T/C (dose: 120.0 mg/kg/injection, schedule: Q01DX011 (ip), vehicle: carboxymethylcellulose (CMC)): 22 % of control

CO[C@H]1[C@@H](O)C[C@H]2[C@@H]3CC=C4C[C@@H](O)CC[C@]4(C)[C@H]3CC[C@@]21C
T/C (dose: 10.0 mg/kg/injection, schedule: Q01DX011 (sc), vehicle: steriod suspending solution): 77 % of control
T/C (dose: 20.0 mg/kg/injection, schedule: Q01DX011 (sc), vehicle: steriod suspending solution): 116 % of control
T/C (dose: 40.0 mg/kg/injection, schedule: Q01DX011 (sc), vehicle: steriod suspending solution): 115 % of control

CCCSc1ncnc2nc[nH]c12
T/C (dose: 18.75 mg/kg/injection, schedule: Q01DX011 (ip), vehicle: carboxymethylcellulose (CMC)): 64 % of control
T/C (dose: 37.5 mg/kg/injection, schedule: Q01DX011 (ip), vehicle: carboxymethylcellulose (CMC)): 64 % of control
T/C (dose: 75.0 mg/kg/injection, schedule: Q01DX011 (ip), vehicle: carboxymethylcellulose (CMC)): 45 % of control
T/C (dose: 150.0 mg/kg/injection, schedule: Q01DX011 (ip), vehicle: carboxymethylcellulose (CMC)): 8 % of control

CN=C(N)c1ccc(N=C(N)c2ccc(C(N)=Nc3ccc(C(N)=NC)cc3)cc2)cc1
T/C (dose: 7.5 mg/kg/injection, schedule: Q01DX011 (ip), vehicle: saline): 182 % of control
T/C [10]: 183 % of control
T/C [11]: 165 % of control

CCn1cnc2c(=S)nc(N)[nH]c21
T/C [8]: 76 % of control
T/C [3]: 89 % of control
T/C [4]: 24 % of control and 49 % of control
T/C [12]: 11 % of control
T/C [13]: 4 % of control and 18 % of control

CCOc1ccc2nc(S(N)(=O)=O)sc2c1
T/C (dose: 62.0 mg/kg/injection, schedule: Q01DX011 (ip), vehicle: carboxymethylcellulose (CMC)): 77 % of control
T/C [2]: 89 % of control

CSc1ncnc2c1ncn2C1OC(CO)C(O)C1O (stereo unspecified)
T/C (dose: 6.0 mg/kg/injection, schedule: Q01DX011 (ip), vehicle: saline): 105 % of control
T/C (dose: 9.0 mg/kg/injection, schedule: Q01DX011 (ip), vehicle: saline): 121 % of control
T/C (dose: 12.5 mg/kg/injection, schedule: Q01DX011 (ip), vehicle: saline): 99 % of control
T/C [11]: 112 % of control

C[C@H](N)C(=O)N[C@@H]1[C@H]2C(=C(O)C[C@@H](O)[C@@H]2O)C(=O)O[C@@H]1C
T/C [1]: 43 % of control
T/C [9]: 48 % of control
T/C (dose: 1000.0 mg/kg/injection, schedule: Q01DX011 (ip), vehicle: carboxymethylcellulose (CMC)): 17 % of control
